Assay results reported in PubChem BioAssay AID2060511 (Molecular Pharmacology Branch, DTP, NCI, 2025).

Test system: 422866-222-R5-J1-PDC spheroids with HUVEC/MSC, viability
Assay: Anticancer human tumor 422866-222-R5-J1-PDC patient-derived pancreatic adenocarcinoma cell line growth inhibition [GQUAD]
Conditions: for IC50: curve of first compound; for viability, T/C: stronger effect = lower value
In short: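 Tumor cells were grown as complex spheroids with HUVEC endothelial cells and mesenchymal stem cells as stroma. G-quadruplex stabilizers were combined with targeted agents over half-log dilutions from near the clinical Cmax, or from 10 microM.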

[1] = second compound 0.0316 µM, first compound 0.0316 µM
[2] = second compound 0.0316 µM, first compound 0.1 µM
[3] = second compound 0.0316 µM, first compound 0.316 µM
[4] = second compound 0.0316 µM, first compound 1 µM
[5] = second compound 0.0316 µM, first compound 3.16 µM
[6] = second compound 0.0316 µM, first compound 10 µM
[7] = second compound 0.1 µM, first compound 0.0316 µM
[8] = second compound 0.1 µM, first compound 0.1 µM
[9] = second compound 0.1 µM, first compound 0.316 µM
[10] = second compound 0.1 µM, first compound 1 µM
[11] = second compound 0.1 µM, first compound 3.16 µM
[12] = second compound 0.1 µM, first compound 10 µM
[13] = second compound 0.316 µM, first compound 0.0316 µM
[14] = second compound 0.316 µM, first compound 0.1 µM
[15] = second compound 0.316 µM, first compound 0.316 µM
[16] = second compound 0.316 µM, first compound 1 µM
[17] = second compound 0.316 µM, first compound 3.16 µM
[18] = second compound 0.316 µM, first compound 10 µM
[19] = second compound 1 µM, first compound 0.0316 µM
[20] = second compound 1 µM, first compound 0.1 µM
[21] = second compound 1 µM, first compound 0.316 µM
[22] = second compound 1 µM, first compound 1 µM
[23] = second compound 1 µM, first compound 3.16 µM
[24] = second compound 1 µM, first compound 10 µM
[25] = second compound 3.16 µM, first compound 0.0316 µM
[26] = second compound 3.16 µM, first compound 0.1 µM
[27] = second compound 3.16 µM, first compound 0.316 µM
[28] = second compound 3.16 µM, first compound 1 µM
[29] = second compound 3.16 µM, first compound 3.16 µM
[30] = second compound 3.16 µM, first compound 10 µM
[31] = second compound 10 µM, first compound 0.0316 µM
[32] = second compound 10 µM, first compound 0.1 µM
[33] = second compound 10 µM, first compound 0.316 µM
[34] = second compound 10 µM, first compound 1 µM
[35] = second compound 10 µM, first compound 3.16 µM
[36] = second compound 10 µM, first compound 10 µM
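Note: spheroids exposed to compounds for seven days before reading.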
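Throughout, for viability, T/C: percent viability relative to DMSO vehicle control taken as 100%.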

For `CC(C)(O)C1CCC(Nc2ccc3ncc(-c4cccc(C(F)(F)F)c4)n3n2)CC1` (stereo not drawn) + CN(C)c1ccc(Nc2c3ccc(NC(=O)CCN4CCCC4)cc3nc3cc(NC(=O)CCN4CCCC4)ccc23)cc1, the IC50 (second compound 0.0316 µM) was 2090 nM, the IC50 (second compound 0.1 µM) was 2670 nM and the IC50 (second compound 0.316 µM) was 1710 nM. It also gave an IC50 (second compound 1 µM) of 1770 nM, an IC50 (second compound 3.16 µM) of 1570 nM and an IC50 (second compound 10 µM) greater than 10000 nM. For the same molecule, the viability, T/C [1] was 88%, the viability, T/C [2] was 80.5% and the viability, T/C [3] was 92.9%. The viability, T/C [4] was 71.8%, the viability, T/C [5] was 38.4% and the viability, T/C [6] was 33.1%. It also gave a viability, T/C [7] of 90.2%, a viability, T/C [8] of 87.4% and a viability, T/C [9] of 81.1%. The viability, T/C [10] was 68.5%, the viability, T/C [11] was 45.7% and the viability, T/C [12] was 39%. It also gave a viability, T/C [13] of 72.7%, a viability, T/C [14] of 82.4% and a viability, T/C [15] of 66.1%. It also gave a viability, T/C [16] of 58.5%, a viability, T/C [17] of 41.3% and a viability, T/C [18] of 36.9%. The viability, T/C [19] was 85.6%, the viability, T/C [20] was 80.2% and the viability, T/C [21] was 77.2%. It also gave a viability, T/C [22] of 57.6%, a viability, T/C [23] of 42.1% and a viability, T/C [24] of 35.4%. For the same molecule, the viability, T/C [25] was 82.2%, the viability, T/C [26] was 77.2% and the viability, T/C [27] was 64.3%. For the same molecule, the viability, T/C [28] was 63.5%, the viability, T/C [29] was 33% and the viability, T/C [30] was 40.6%. It also gave a viability, T/C [31] of 77.4%, a viability, T/C [32] of 69.6% and a viability, T/C [33] of 79.1%. For the same molecule, the viability, T/C [34] was 75.4%, the viability, T/C [35] was 63.2% and the viability, T/C [36] was 55.5%.
Work on `CCCS(=O)(=O)Nc1ccc(F)c(C(=O)c2c[nH]c3ncc(-c4ccc(Cl)cc4)cc23)c1F` + CN(C)c1ccc(Nc2c3ccc(NC(=O)CCN4CCCC4)cc3nc3cc(NC(=O)CCN4CCCC4)ccc23)cc1 yielded an IC50 (second compound 0.0316 µM) greater than 10000 nM, an IC50 (second compound 0.1 µM) greater than 10000 nM and an IC50 (second compound 0.316 µM) greater than 10000 nM. The IC50 (second compound 1 µM) was greater than 10000 nM, the IC50 (second compound 3.16 µM) was greater than 10000 nM and the IC50 (second compound 10 µM) was greater than 10000 nM. The viability, T/C [1] was 95.8%, the viability, T/C [2] was 117% and the viability, T/C [3] was 121%. It also gave a viability, T/C [4] of 136%, a viability, T/C [5] of 164% and a viability, T/C [6] of 130%. It also gave a viability, T/C [7] of 112%, a viability, T/C [8] of 91.6% and a viability, T/C [9] of 112%. The viability, T/C [10] was 137%, the viability, T/C [11] was 203% and the viability, T/C [12] was 128%. It also gave a viability, T/C [13] of 98%, a viability, T/C [14] of 108% and a viability, T/C [15] of 122%. For the same molecule, the viability, T/C [16] was 143%, the viability, T/C [17] was 158% and the viability, T/C [18] was 127%. It also gave a viability, T/C [19] of 74.3%, a viability, T/C [20] of 88.3% and a viability, T/C [21] of 113%. The viability, T/C [22] was 112%, the viability, T/C [23] was 196% and the viability, T/C [24] was 130%. For the same molecule, the viability, T/C [25] was 83.8%, the viability, T/C [26] was 97.7% and the viability, T/C [27] was 97%. The viability, T/C [28] was 157%, the viability, T/C [29] was 189% and the viability, T/C [30] was 154%. It also gave a viability, T/C [31] of 90.3%, a viability, T/C [32] of 90.2% and a viability, T/C [33] of 123%. The viability, T/C [34] was 131%, the viability, T/C [35] was 129% and the viability, T/C [36] was 153%.
For `O=C(NO)c1cnc(N2CCN(S(=O)(=O)c3ccc4ccccc4c3)CC2)nc1` + CN(C)c1ccc(Nc2c3ccc(NC(=O)CCN4CCCC4)cc3nc3cc(NC(=O)CCN4CCCC4)ccc23)cc1, the IC50 (second compound 0.0316 µM) was 792 nM, the IC50 (second compound 0.1 µM) was 944 nM and the IC50 (second compound 0.316 µM) was 838 nM. The IC50 (second compound 1 µM) was 856 nM, the IC50 (second compound 3.16 µM) was 566 nM and the IC50 (second compound 10 µM) was 1110 nM. For the same molecule, the viability, T/C [1] was 93.7%, the viability, T/C [2] was 115% and the viability, T/C [3] was 79.9%. For the same molecule, the viability, T/C [4] was 37.4%, the viability, T/C [5] was 29.4% and the viability, T/C [6] was 1.05%. The viability, T/C [7] was 100%, the viability, T/C [8] was 101% and the viability, T/C [9] was 89.8%. The viability, T/C [10] was 38.5%, the viability, T/C [11] was 32.1% and the viability, T/C [12] was 1.23%. It also gave a viability, T/C [13] of 98%, a viability, T/C [14] of 111% and a viability, T/C [15] of 67.4%. The viability, T/C [16] was 37.4%, the viability, T/C [17] was 37.1% and the viability, T/C [18] was 1.09%. For the same molecule, the viability, T/C [19] was 92.5%, the viability, T/C [20] was 92.9% and the viability, T/C [21] was 66.8%. The viability, T/C [22] was 38.1%, the viability, T/C [23] was 34% and the viability, T/C [24] was 1.34%. It also gave a viability, T/C [25] of 87.6%, a viability, T/C [26] of 94.6% and a viability, T/C [27] of 54.5%. The viability, T/C [28] was 30.7%, the viability, T/C [29] was 36.1% and the viability, T/C [30] was 1.79%. It also gave a viability, T/C [31] of 89.6%, a viability, T/C [32] of 88.2% and a viability, T/C [33] of 72.2%. The viability, T/C [34] was 38.4%, the viability, T/C [35] was 41.3% and the viability, T/C [36] was 1.96%.
For `COc1ccc([C@@H](O)c2cc(-c3ncnc4cc(N5CCOCC5)ccc34)c(F)cc2Cl)nn1` + Cc1[nH]c2ccc(F)cc2c1-c1nc2c3cccnc3c3ncccc3c2[nH]1, the IC50 (second compound 0.0316 µM) was 4200 nM, the IC50 (second compound 0.1 µM) was 5780 nM and the IC50 (second compound 0.316 µM) was 3270 nM. It also gave an IC50 (second compound 1 µM) of 4470 nM, an IC50 (second compound 3.16 µM) of 2630 nM and an IC50 (second compound 10 µM) of 2130 nM. For the same molecule, the viability, T/C [1] was 81.2%, the viability, T/C [2] was 79.2% and the viability, T/C [3] was 72.2%. It also gave a viability, T/C [4] of 68%, a viability, T/C [5] of 54.7% and a viability, T/C [6] of 35.8%. The viability, T/C [7] was 90.6%, the viability, T/C [8] was 78.8% and the viability, T/C [9] was 68.6%. For the same molecule, the viability, T/C [10] was 60.2%, the viability, T/C [11] was 62.5% and the viability, T/C [12] was 42.1%. It also gave a viability, T/C [13] of 95.4%, a viability, T/C [14] of 82.4% and a viability, T/C [15] of 74.9%. It also gave a viability, T/C [16] of 60.6%, a viability, T/C [17] of 51.3% and a viability, T/C [18] of 38.8%. For the same molecule, the viability, T/C [19] was 75.6%, the viability, T/C [20] was 81.8% and the viability, T/C [21] was 66.9%. The viability, T/C [22] was 62.8%, the viability, T/C [23] was 57.5% and the viability, T/C [24] was 38.5%. The viability, T/C [25] was 80.7%, the viability, T/C [26] was 73% and the viability, T/C [27] was 65.4%. It also gave a viability, T/C [28] of 64.8%, a viability, T/C [29] of 45.3% and a viability, T/C [30] of 34.6%. For the same molecule, the viability, T/C [31] was 64.2%, the viability, T/C [32] was 69% and the viability, T/C [33] was 78.5%. The viability, T/C [34] was 57.1%, the viability, T/C [35] was 46.2% and the viability, T/C [36] was 33.9%.
